# Measured values from ChEMBL document CHEMBL1135329, “DNA binding ligands with excellent antibiotic potency against drug-resistant gram-positive bacteria” (Bioorg Med Chem Lett, 2002).
# Assays:
# Assay type in all cases: functional
# [1] = test system: Streptococcus pneumoniae; assay: Antimicrobial activity was determined against penicillin-susceptible Streptococcus pneumoniae (PSSP 49619)
# [2] = test system: Staphylococcus aureus; assay: Antimicrobial activity was determined against methicillin-susceptible S. aureus(MSSA 29213)
# [3] = test system: Escherichia coli; assay: Binding to the sequence 5'-ACAATTAA-3', a site proximal to the […] RNA polymerase subunit binding site within the Escherichia coli Trc promoter.; conditions: read-out: Kd app
# [4] = test system: Enterococcus faecalis; assay: Antimicrobial activity was determined against vancomycin-susceptible Enterococcus faecalis (VSEF 29212)
# [5] = test system: Staphylococcus aureus; assay: Antimicrobial activity was determined against methicillin-resistant Staphylococcus aureus (MRSA 27660)
# [6] = test system: Candida albicans; assay: Antifungal activity was determined against Candida albicans
# [7] = test system: Streptococcus pneumoniae; assay: Antimicrobial activity was determined against penicillin-resistant Streptococcus pneumoniae (PRSP 51422)
# [8] = test system: Enterococcus faecalis; assay: Antimicrobial activity was determined against vancomycin-resistant Enterococcus faecalis (VREF 51559)
Structure (SMILES),MIC [1] [µg/mL],MIC [2] [µg/mL],Kd [3] [nM],MIC [4] [µg/mL],MIC [5] [µg/mL],MIC [6] [µg/mL],MIC [7] [µg/mL],MIC [8] [µg/mL]
Cn1cc(NC(=O)c2cc(NC(=O)c3cc(NC(=O)c4nsc(N5CCCCC5)c4Cl)cn3C)cn2C)cc1C(=O)NCCN1CCOCC1,0.125,2,4,1,1,> 32,0.062,1
CN(C)CCCNC(=O)c1cc(NC(=O)c2cc(NC(=O)c3cc(NC(=O)c4nsc(NCCCCN)c4Cl)cn3C)cn2C)cn1C,0.5,2,1.04,1,2,8,1,1
Cn1cc(NC(=O)c2cc(NC(=O)c3cc(NC(=O)c4nsc(NCCc5ccccn5)c4Cl)cn3C)cn2C)cc1C(=O)NCCN1CCOCC1,0.125,1,0.83,0.5,2,> 32,0.5,4
Cn1cc(NC(=O)c2cc(NC(=O)c3cc(NC(=O)c4nsc(NCCN5CCOCC5)c4Cl)cn3C)cn2C)cc1C(=O)NCCc1ccncc1,0.062,0.125,4.35,0.062,0.5,> 32,0.5,0.25
Cn1cc(NC(=O)c2cc(NC(=O)c3cc(NC(=O)c4nsc(NCCN5CCOCC5)c4Cl)cn3C)cn2C)cc1C(=O)NCCN1CCOCC1,0.062,1,9.09,0.25,4,> 32,0.25,2
Cn1cc(NC(=O)c2cc(NC(=O)c3cc(NC(=O)c4nsc(NCCCCN)c4Cl)cn3C)cn2C)cc1C(=O)NCCCNC1CCCCC1,1,0.5,0.43,0.5,1,32,4,2
Cn1cc(NC(=O)c2cc(NC(=O)c3cc(NC(=O)c4nsc(NCCN5CCOCC5)c4Cl)cn3C)cn2C)cc1C(=O)NCC1CC1,1,16,208,0.5,8,> 32,0.5,1
CN(C)CCCNC(=O)c1cc(NC(=O)c2cc(NC(=O)c3cc(NC(=O)c4nsc(NCCCN)c4Cl)cn3C)cn2C)cn1C,0.5,2,1.74,1,1,8,4,2
Cn1cc(NC(=O)c2cc(NC(=O)c3cc(NC(=O)c4nsc(NCCc5ccncc5)c4Cl)cn3C)cn2C)cc1C(=O)NCCN1CCOCC1,0.062,1,0.29,0.25,1,> 32,0.25,2
Cn1cc(NC(=O)c2cc(NC(=O)c3cc(NC(=O)c4nsc(NCC5CC5)c4Cl)cn3C)cn2C)cc1C(=O)NCCN1CCOCC1,0.125,0.5,1.01,0.25,1,> 32,0.125,1
Cn1cc(NC(=O)c2cc(NC(=O)c3cc(NC(=O)c4nsc(NCCCO)c4Cl)cn3C)cn2C)cc1C(=O)NCCN1CCOCC1,0.5,1,1.03,0.125,2,> 32,0.031,0.5
Cn1cc(NC(=O)c2cc(NC(=O)c3cc(NC(=O)c4nsc(NCCCNC5CCCCC5)c4Cl)cn3C)cn2C)cc1C(=O)NCCCNC1CCCCC1,2,1,1.19,2,1,16,0.5,2
CCOCCCNC(=O)c1cc(NC(=O)c2cc(NC(=O)c3cc(NC(=O)c4nsc(NCCN5CCOCC5)c4Cl)cn3C)cn2C)cn1C,0.5,16,83.3,16,16,> 32,1,4
CN(C)CCCNC(=O)c1cc(NC(=O)c2cc(NC(=O)c3cc(NC(=O)c4nsc(NCCCCCCCN)c4Cl)cn3C)cn2C)cn1C,32,32,1.3,8,32,> 32,16,1
CCOCCCNc1snc(C(=O)Nc2cc(C(=O)Nc3cc(C(=O)Nc4cc(C(=O)NCCN5CCOCC5)n(C)c4)n(C)c3)n(C)c2)c1Cl,0.25,1,1.34,0.25,2,> 32,0.125,2
CN(C)CCCCNC(=O)c1cc(NC(=O)c2cc(NC(=O)c3cc(NC(=O)c4nsc(NCCCN)c4Cl)cn3C)cn2C)cn1C,0.064,0.5,0.53,0.125,0.25,0.25,0.125,0.25
Cn1cc(NC(=O)c2cc(NC(=O)c3cc(NC(=O)c4nsc(NCCCNC5CCCCC5)c4Cl)cn3C)cn2C)cc1C(=O)NCCCCN,1,2,2,2,2,4,16,16
Cn1cc(NC(=O)c2cc(NC(=O)c3cc(NC(=O)c4nsc(NCCCNC5CCCCC5)c4Cl)cn3C)cn2C)cc1C(=O)NCCN1CCOCC1,0.062,2,0.59,2,8,16,0.25,16
Cn1cc(NC(=O)c2cc(NC(=O)c3cc(NC(=O)c4nsc(NCCN5CCOCC5)c4Cl)cn3C)cn2C)cc1C(=O)NCCCO,32,> 32,32.1,32,–,> 32,1,> 32
Cn1cc(NC(=O)c2cc(NC(=O)c3cc(NC(=O)c4nsc(NCCCCN)c4Cl)cn3C)cn2C)cc1C(=O)NCCN1CCOCC1,0.5,4,0.37,4,4,8,0.5,16
